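Each compound was tested at five concentrations against cells in 96-well plates for 48 hours. GI50 marks 50% less growth.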 Calls of active or inactive are those of the source. Cut-off read from the data, not from the text of the source: active = GI50 up to about 1.1 µM and inactive = higher.
Columns and labels:
Assay in all cases: NCI anticancer screen, dose series, 48 h
UACC-257 = tested on: UACC-257
Malme-3M = tested on: Malme-3M
EKVX = tested on: EKVX
RPMI-8226 = tested on: RPMI-8226
A549 = tested on: A549
NCI-H23 = tested on: NCI-H23
HCT-116 = tested on: HCT-116
SNB-19 = tested on: SNB-19
HT-29 = tested on: HT-29
UACC-62 = tested on: UACC-62
OVCAR-4 = tested on: OVCAR-4
SF-539 = tested on: SF-539
HOP-62 = tested on: HOP-62
HCT-15 = tested on: HCT-15
COLO 205 = tested on: COLO 205
OVCAR-8 = tested on: OVCAR-8
MDA-MB-231 = tested on: MDA-MB-231
PC-3 = tested on: PC-3
NCI-H460 = tested on: NCI-H460
HL-60 = tested on: HL-60

| SMILES | GI50 (UACC-257) | GI50 (Malme-3M) | GI50 (EKVX) | GI50 (RPMI-8226) | GI50 (A549) | GI50 (NCI-H23) | GI50 (HCT-116) | GI50 (SNB-19) | GI50 (HT-29) | GI50 (UACC-62) | GI50 (OVCAR-4) | GI50 (SF-539) | GI50 (HOP-62) | GI50 (HCT-15) [µM] | GI50 (COLO 205) | GI50 (OVCAR-8) | GI50 (MDA-MB-231) | GI50 (PC-3) | GI50 (NCI-H460) | GI50 (HL-60) |
| --- | --- | --- | --- | --- | --- | --- | --- | --- | --- | --- | --- | --- | --- | --- | --- | --- | --- | --- | --- | --- |
| Nc1nc(Cl)cc(NCCO)n1 | > 100 µM (inactive) | > 100 µM (inactive) | > 100 µM (inactive) | > 100 µM (inactive) | > 100 µM (inactive) | > 100 µM (inactive) | > 100 µM (inactive) | > 100 µM (inactive) | > 100 µM (inactive) | > 100 µM (inactive) | > 100 µM (inactive) | > 100 µM (inactive) | > 100 µM (inactive) | > 100 | > 100 µM (inactive) | > 100 µM (inactive) | > 100 µM (inactive) | > 100 µM (inactive) | > 100 µM (inactive) | – |
| c1ccc(-c2c3c(nc4c2CC[C@H]4NC2=NCCN2)[C@@H](NC2=NCCN2)CC3)cc1 | > 90.6 µM (inactive) | > 100 µM (inactive) | > 100 µM (inactive) | – | > 87.9 µM (inactive) | > 100 µM (inactive) | 48.5 µM (inactive) | – | > 100 µM (inactive) | > 100 µM (inactive) | > 100 µM (inactive) | 27.4 µM (inactive) | > 100 µM (inactive) | > 100 | > 100 µM (inactive) | > 100 µM (inactive) | > 100 µM (inactive) | 98.2 µM (inactive) | 29.2 µM (inactive) | 11.2 µM (inactive) |
| O=c1c2cn[nH]c2nc2scc(-c3ccc(Cl)cc3)n12 | > 100 µM (inactive) | > 100 µM (inactive) | > 100 µM (inactive) | > 100 µM (inactive) | > 100 µM (inactive) | > 100 µM (inactive) | > 100 µM (inactive) | > 100 µM (inactive) | > 100 µM (inactive) | > 100 µM (inactive) | > 100 µM (inactive) | > 100 µM (inactive) | > 100 µM (inactive) | > 100 | > 100 µM (inactive) | > 100 µM (inactive) | > 100 µM (inactive) | > 100 µM (inactive) | > 100 µM (inactive) | – |
| O=C1C2=Cc3ccccc3OC2(O)Oc2ccc(O)cc21 (configuration not stated) | > 100 µM (inactive) | 91.2 µM (inactive) | > 100 µM (inactive) | 23.1 µM (inactive) | 53.6 µM (inactive) | 84.1 µM (inactive) | > 100 µM (inactive) | – | > 100 µM (inactive) | 61.8 µM (inactive) | – | > 100 µM (inactive) | 57.1 µM (inactive) | 38.6 | 40.8 µM (inactive) | 69.5 µM (inactive) | > 100 µM (inactive) | 73.3 µM (inactive) | – | – |
| C[C@]12CC[C@H](O)CC1=CC[C@@H]1[C@@H]2CC[C@]2(C)NC(=O)/C(=C\c3ccccc3)C[C@@H]12 | 23.3 µM (inactive) | 15.8 µM (inactive) | 14 µM (inactive) | 21.6 µM (inactive) | 14.6 µM (inactive) | 18.2 µM (inactive) | 14.2 µM (inactive) | 14.7 µM (inactive) | 14.3 µM (inactive) | 18.3 µM (inactive) | 5.64 µM (inactive) | 14.6 µM (inactive) | 13.5 µM (inactive) | 17.4 | 16 µM (inactive) | 21.1 µM (inactive) | 16 µM (inactive) | 13.3 µM (inactive) | 23.9 µM (inactive) | – |
| O=C1/C(=C\c2cccc(Oc3ccccc3)c2)S(=O)(=O)C(c2ccccc2)N1c1cc(Cl)ccc1Cl (configuration not stated) | 19.9 µM (inactive) | 20.1 µM (inactive) | 27.8 µM (inactive) | 5.94 µM (inactive) | 22.2 µM (inactive) | 19.4 µM (inactive) | 4.6 µM (inactive) | 16 µM (inactive) | 5.96 µM (inactive) | 15.2 µM (inactive) | 23.1 µM (inactive) | 5.43 µM (inactive) | 19.4 µM (inactive) | 21 | 22.2 µM (inactive) | 5.06 µM (inactive) | 28.7 µM (inactive) | 32.4 µM (inactive) | 28.1 µM (inactive) | – |
| O=C1Nc2ccccc2/C1=N/Nc1nc(-c2ccccc2)cs1 | 56.2 µM (inactive) | – | 21.4 µM (inactive) | – | 75.3 µM (inactive) | 47.6 µM (inactive) | 31.9 µM (inactive) | 29.9 µM (inactive) | 27.7 µM (inactive) | – | 40.7 µM (inactive) | 10.1 µM (inactive) | 18.2 µM (inactive) | 23.1 | 42.4 µM (inactive) | 40.1 µM (inactive) | 28.3 µM (inactive) | 19.2 µM (inactive) | 14.7 µM (inactive) | 2.45 µM (inactive) |
| COc1ccc(/C=C\c2cc(OC)c(OC)c(OC)c2)c(O)c1O [COMBRETASTATIN A-1] | 0.0582 µM (active) | 0.678 µM (active) | 1.99 µM (inactive) | 0.0757 µM (active) | 0.178 µM (active) | – | – | – | 7.03 µM (inactive) | 0.0394 µM (active) | 2.2 µM (inactive) | – | 0.0893 µM (active) | – | 6.65 µM (inactive) | 0.0881 µM (active) | 0.0148 µM (active) | < 0.0103 µM (active) | 0.0463 µM (active) | 0.0698 µM (active) |
| CC(NC(CC12CC3CC(CC(C3)C1)C2)C(N)=O)c1ccccc1 (configuration not stated) | 15.2 µM (inactive) | 17.9 µM (inactive) | 23.4 µM (inactive) | 15.7 µM (inactive) | 39.8 µM (inactive) | – | 18.7 µM (inactive) | 28.9 µM (inactive) | 21 µM (inactive) | 20.3 µM (inactive) | 33.7 µM (inactive) | – | 28.1 µM (inactive) | 31.7 | 12.6 µM (inactive) | 23.6 µM (inactive) | 29.3 µM (inactive) | 27 µM (inactive) | 17.4 µM (inactive) | 10.1 µM (inactive) |
| CNc1ccc([N+](=O)[O-])cc1C(=O)N1CCC[C@H]1CO | > 100 µM (inactive) | > 100 µM (inactive) | > 100 µM (inactive) | > 100 µM (inactive) | > 100 µM (inactive) | > 100 µM (inactive) | > 100 µM (inactive) | > 100 µM (inactive) | > 100 µM (inactive) | > 100 µM (inactive) | > 100 µM (inactive) | – | > 100 µM (inactive) | > 100 | > 100 µM (inactive) | > 100 µM (inactive) | > 100 µM (inactive) | > 100 µM (inactive) | > 100 µM (inactive) | > 100 µM (inactive) |
| Cc1cc(C#N)c(Nc2ccc(F)cc2[N+](=O)[O-])s1 | > 100 µM (inactive) | 70.6 µM (inactive) | > 100 µM (inactive) | > 100 µM (inactive) | > 100 µM (inactive) | > 100 µM (inactive) | > 100 µM (inactive) | > 100 µM (inactive) | – | > 100 µM (inactive) | > 100 µM (inactive) | 80.7 µM (inactive) | 30.3 µM (inactive) | > 100 | > 100 µM (inactive) | > 100 µM (inactive) | 21.5 µM (inactive) | > 100 µM (inactive) | > 100 µM (inactive) | – |

Reference: ChEMBL document CHEMBL1201862, “PubChem BioAssay data set” (2004)
